From PMC9351465, “Mechanism-based heparanase inhibitors reduce cancer metastasis in vivo” (Proceedings of the National Academy of Sciences of the …, 2022) come the findings set out here.

Where “and” joins values, the source holds several entries; their conditions need not be identical. Identical values can stand only once. Entries after “also recorded” stand apart in the source; their conditions may differ.

Test [1] has as its target T1, HPSE (Homo sapiens, UniProt Q9Y251).
T1 sequence (Q9Y251 158-543 limits assumed): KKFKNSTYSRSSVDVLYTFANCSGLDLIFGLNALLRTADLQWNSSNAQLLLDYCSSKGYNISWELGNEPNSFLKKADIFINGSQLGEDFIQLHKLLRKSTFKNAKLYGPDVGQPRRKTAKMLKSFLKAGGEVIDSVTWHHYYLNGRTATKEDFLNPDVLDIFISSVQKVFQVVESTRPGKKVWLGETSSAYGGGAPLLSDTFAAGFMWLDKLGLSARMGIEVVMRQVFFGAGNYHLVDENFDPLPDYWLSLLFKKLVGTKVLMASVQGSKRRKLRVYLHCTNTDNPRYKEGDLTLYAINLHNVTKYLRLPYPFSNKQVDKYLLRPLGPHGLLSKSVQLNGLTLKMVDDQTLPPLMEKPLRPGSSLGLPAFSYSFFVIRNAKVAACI
T1 sequence (Q9Y251 36-109 limits assumed): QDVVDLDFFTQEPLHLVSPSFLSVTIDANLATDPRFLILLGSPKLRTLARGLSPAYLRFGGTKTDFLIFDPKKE
As to the kind of experiment: colorimetric fondaparinux cleavage assay. It counts as biochemical. Here is the method: We next investigated the ability of our inhibitors to abrogate HPSE processing of its native oligosaccharide substrates, using a colorimetric assay that detects cleavage of the synthetic HS pentasaccharide fondaparinux ([49]). […]
Fondaparinux cleavage was performed essentially as previously described (9). Briefly, assays were carried out in 96 well plates (Nunc) pretreated with 4% BSA in TBS-T (20 mM Tris pH 7.4, […]
100 µL reactions were set up in 40 mM NaOAc pH 5.0 buffer, containing final concentrations of 200 ng/mL HPSE, 100 µM Fondaparinux (Arixtra) and specified concentrations of inhibitors.
Reactions were incubated at 37°C for 18 h, then quenched with 100 µL 0.1 M NaOH supplemented with 1.7 mM WST-1 tetrazolium salt, and incubated at 60°C for 1 h. Absorbance at 584 nm was read using an ELISA plate reader (BIO-TEK Instruments). All reactions were carried out in technical duplicate. Data were plotted and analyzed using Sigmaplot (Systat). […]

The target of test [2] is T1, HPSE. As to the kind of experiment: H35SPG basement membrane (ECM) digest by recombinant HPSE. The note with it: for inhibition of recombinant HPSE-mediated H35SPG cleavage: 200 ng HPSE, pH 6.0, 37°C, 5 h. It counts as biochemical. An excerpt: Finally, we assessed our inhibitors against HPSE-mediated degradation of bona fide HSPGs in an ECM environment. Cultured bovine corneal endothelial cells secrete a subendothelial basement membrane material rich in proteoglycans, which can be radiolabeled by growth in the presence of ^35SO4^2− ([50]). Solubilized H^35S chains released from H^35SPGs by HPSE digestion can be resolved chromatographically, with HPSE inhibition leading to a corresponding loss of signal. […] We also tested inhibition of endogenous cellular HPSE using this assay format. […]
ECM coated 35 mm culture dishes containing 35S labelled HS were prepared as previously described (10). Briefly, bovine corneal endothelial cells were plated at an initial density of 2x10^5 cells/ml, with 4% dextran T-40 (Sigma) included in the growth medium. Na235SO4 (25 µCi/ml) was added to the incubation medium on days 2 and 5 after seeding. On day 12, subendothelial ECM is exposed by dissolving the cells with PBS containing 0.5% Triton X-100 and 20 mM NH4OH, followed by four washes with PBS.
(§1) For HS-degradation assays, ECM coated dishes were incubated with 200 ng recombinant HPSE in 1 mL reaction mixture (10 mM buffer Phosphate-Citrate pH 6.0, 50 mM NaCl, 1 mM DTT, 1 mM CaCl2) containing HPSE inhibitors or DMSO control. Plates were incubated at 37°C for 5 h, then assay medium collected and applied to a 0.9×30 cm Sepharose 6B size exclusion column. The Sepharose 6B column was eluted with PBS, and 35S radioactivity of 0.2 mL fractions quantitated using a liquid scintillation analyzer (Packard BioScience) (11). […]
Matrigel and […]
non-migrating cells in the upper side of the Boyden filter were removed by swabbing, then invading cells on the bottom side of the transwell filter imaged for analysis. […]
B16 melanoma - Twenty minutes before tumor cell inoculation, C57BL/J6 mice (n=5) were injected intraperitoneally with vehicle alone (PBS), compound 2 (300 nmol/mouse), or SST0001 (150 µg/mouse). Mice were subsequently intravenously inoculated with 1.5x105

The target of test [3] is exo-β-glucuronidase EcGUSB (Escherichia coli, UniProt P05804). As to the kind of experiment: cABPP with ABP 7, recombinant EcGUSB. The note with it: competition with ABP 7.
The next test has as its target T2, GUSB (Homo sapiens, UniProt P08236).
T2 sequence (P08236 23-651): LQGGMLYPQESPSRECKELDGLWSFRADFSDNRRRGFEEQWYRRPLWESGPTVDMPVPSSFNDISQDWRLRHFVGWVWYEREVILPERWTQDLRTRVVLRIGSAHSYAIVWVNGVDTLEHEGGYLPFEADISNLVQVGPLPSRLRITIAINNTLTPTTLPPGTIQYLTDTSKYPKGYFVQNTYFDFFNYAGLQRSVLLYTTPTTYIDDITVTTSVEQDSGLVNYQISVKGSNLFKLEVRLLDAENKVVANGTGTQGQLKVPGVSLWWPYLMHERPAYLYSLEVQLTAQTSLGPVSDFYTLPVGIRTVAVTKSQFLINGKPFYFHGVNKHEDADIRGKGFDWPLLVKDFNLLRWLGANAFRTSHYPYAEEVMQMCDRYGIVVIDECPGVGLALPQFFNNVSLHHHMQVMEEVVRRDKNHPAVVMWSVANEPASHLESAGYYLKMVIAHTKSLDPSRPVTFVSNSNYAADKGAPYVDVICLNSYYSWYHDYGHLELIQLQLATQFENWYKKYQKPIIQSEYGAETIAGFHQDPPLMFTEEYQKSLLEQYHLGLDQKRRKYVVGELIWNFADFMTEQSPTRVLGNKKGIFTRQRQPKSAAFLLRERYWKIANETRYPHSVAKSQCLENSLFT
As to the kind of experiment: cABPP of human platelet lysates, GUSB band. The note with it: human platelet lysates containing both HPSE and GUSB.

Test [4] has as its target T1, HPSE. As to the kind of experiment: competitive activity-based protein profiling (cABPP) with ABP 7, recombinant HPSE. The note with it: recombinant HPSE 20 nM, 1 h preincubation at 37°C, then 100 nM ABP 7, pH 5.5.
The test system of the next test is U87 glioblastoma cells. The test is described as follows: Matrigel invasion assay. It counts as cell-based, human. The note with it: 20 µM inhibitor, 4 h. Here is the method: Preliminary in cellulo evaluations of our inhibitors’ effects on cancer aggression were conducted using a Matrigel invasion assay, which measures the ability of cells to migrate through transwell inserts coated with the ECM material Matrigel. Matrigel invasion by cells requires a broad complement of proteases and glycosidases, thereby mimicking some aspects of metastasis in vivo ([51]).
as §1
Cells in the upper chamber were separated by Matrigel from a lower chamber containing 600 µL DMEM, supplemented with 10% FBS. […] 10 randomly selected microscopic fields were recorded, and cell invasion calculated using ImageJ, by quantitating the percentage of the field stained by crystal violet. […]

The next test addresses T3, human platelet HPSE (Homo sapiens, UniProt Q9Y251).
T3 sequence (Q9Y251 158-543 limits assumed): T1 sequence (Q9Y251 158-543 limits assumed)
T3 sequence (Q9Y251 36-109 limits assumed): T1 sequence (Q9Y251 36-109 limits assumed)
The test is described as follows: cABPP of human platelet lysates, HPSE band.

The test system of another test is BpHep and AcGH79. Format: biochemical, Burkholderia pseudomallei; Acidobacterium capsulatum. The note with it: recombinant enzymes, competition with ABP 7.

Turning to `O=C(O)[C@@H]1[C@@H](O)[C@H](O)[C@@H](O)[C@@H]2O[C@@H]21` [compound 1, glucuronyl-cyclophellitol], the “HPSE inhibition, fondaparinux cleavage” value at HPSE [1] (at 50 μM) is on record as “Little HPSE inhibition”. Moreover, the “inhibition of recombinant HPSE-mediated H35SPG cleavage” value on HPSE [2] is on record as “no HPSE inhibition was observed”. Also, the “EcGUSB inhibition (cABPP)” value in test [3] is on record as “inhibited”. The “selectivity of GUSB inhibition in platelet lysates” value at GUSB is “exclusively inhibited GUSB”. In addition, the “HPSE inhibition (cABPP)” value on HPSE [4] is given as “ineffective HPSE inhibitor up to 10 μM”.

In general, IC50 refers to the point on the concentration scale where inhibition reaches its midpoint. `CC(=O)N[C@H]1[C@@H](O[C@H]2[C@H](O)[C@@H](O)[C@@H]3O[C@@H]3[C@@H]2C(=O)O)O[C@H](COS(=O)(=O)O)[C@@H](O)[C@@H]1O` [compound 3]: the IC50 at HPSE [1] (200 ng/mL HPSE, 100 µM fondaparinux, pH 5.0, 37°C, 18 h, n = 2, read-out: IC50, HPSE-mediated fondaparinux cleavage) was 520 nM and ~510 nM; on human platelet HPSE (HPSE IC50, human platelet lysates, cABPP, n = 3), ~60 nM and 56 nM. In addition, on HPSE [2], the “inhibition of recombinant HPSE-mediated H35SPG cleavage” value is “robust, dose-dependent inhibition”. The “level of inhibition of H35SPG cleavage relative to 4.6 μM 10” value on HPSE [2] (1 μM 2 or 3 compared to 4.6 μM 10) is on record as “comparable levels of inhibition”. In addition, in the test with U87 glioblastoma cells, the “Matrigel invasion (% field stained)” value is recorded as “significantly reduced Matrigel invasion”. Also, the “selectivity of HPSE inhibition in platelet lysates” value at human platelet HPSE (human platelet lysates containing both HPSE and GUSB) is listed as “highly selective inhibition of human platelet HPSE”. Besides, at HPSE [4], the “HPSE inhibition (cABPP)” value was “nanomolar HPSE inhibition potencies; also recorded: greater potency than 2 and 4”.

As to `O=C(O)[C@@H]1[C@@H](O[C@H]2O[C@H](CO)[C@@H](O)[C@H](O)[C@H]2O)[C@H](O)[C@@H](O)[C@@H]2O[C@@H]21` [compound 4], at HPSE [4], the “HPSE inhibition (cABPP)” value was “nanomolar HPSE inhibition potencies”.

On to `N[C@H]1[C@@H](O[C@H]2[C@H](O)[C@@H](O)[C@@H]3O[C@@H]3[C@@H]2C(=O)O)O[C@H](CO)[C@@H](O)[C@@H]1O` [compound 5], for which, in the test with BpHep and AcGH79, the “inhibition of BpHep and AcGH79 (cABPP)” value is “all compounds apart from 5 showing activity”. Moreover, the “HPSE inhibition (cABPP)” value on HPSE [4] is “weaker inhibition”.
